Laboratory results reported in patent publication EP4778929A1, “NOVEL TYPE I TOPOISOMERASE INHIBITOR, AND PREPARATION METHOD THEREFOR AND USE THEREOF” (priority 2023, dated 2025).
Read-outs that look alike come from different tables or passages of the source.

Key:
topoisomerase I (Topo I) = biological target: T1, topoisomerase I (Topo I) (Homo sapiens, UniProt P11387); experiment: Topo I enzyme-inhibitory activity by agarose-gel electrophoresis (plasmid relaxation); format: biochemical
T1 sequence (P11387 1-765): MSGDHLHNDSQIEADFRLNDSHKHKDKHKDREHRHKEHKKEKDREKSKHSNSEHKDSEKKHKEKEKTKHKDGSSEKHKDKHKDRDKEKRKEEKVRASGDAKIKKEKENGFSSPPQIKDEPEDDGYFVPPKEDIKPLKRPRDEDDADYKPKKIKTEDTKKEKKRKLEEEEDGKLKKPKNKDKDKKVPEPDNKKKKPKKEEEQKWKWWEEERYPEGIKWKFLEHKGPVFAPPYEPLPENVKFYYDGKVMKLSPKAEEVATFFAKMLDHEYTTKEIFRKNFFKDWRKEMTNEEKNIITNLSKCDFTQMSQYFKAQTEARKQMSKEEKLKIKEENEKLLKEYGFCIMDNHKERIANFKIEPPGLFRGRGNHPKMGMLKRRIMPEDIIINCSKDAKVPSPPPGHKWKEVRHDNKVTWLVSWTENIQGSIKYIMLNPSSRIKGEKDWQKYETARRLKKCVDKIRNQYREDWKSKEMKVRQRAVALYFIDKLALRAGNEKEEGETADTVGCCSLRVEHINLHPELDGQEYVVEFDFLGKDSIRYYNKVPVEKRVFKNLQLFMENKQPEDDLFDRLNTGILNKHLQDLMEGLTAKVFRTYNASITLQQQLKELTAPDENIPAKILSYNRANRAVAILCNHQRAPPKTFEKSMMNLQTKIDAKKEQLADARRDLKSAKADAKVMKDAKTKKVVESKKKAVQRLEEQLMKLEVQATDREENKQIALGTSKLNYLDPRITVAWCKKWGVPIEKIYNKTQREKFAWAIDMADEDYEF
Source text: Test Example 1. Determination of Topo I Enzyme-Inhibitory Activity by Agarose-Gel Electrophoresis
Principle: Type-I topoisomerase (Topo I) relaxes positive and negative supercoils by introducing transient single-strand breaks and forming reversible cleavage complexes (Topo I-DNA covalent complexes). Gel electrophoresis can resolve DNA species of identical molecular weight but different topology: supercoiled plasmid migrates fastest, whereas the nicked, relaxed form moves more slowly. Quantifying the decrease in supercoiled DNA therefore provides a direct measure of Topo I activity.
Experimental Procedure: A 1× reaction buffer was prepared (20 mM Tris-HCl pH 7.5, 200 mM NaCl, 0.25 mM EDTA, 5 % (v/v) glycerol, 0.5 µg pNO1 plasmid substrate). Test compounds (5 % DMSO final) were added to the buffer, followed by Topo I enzyme (0.75 U per reaction). After gentle mixing, reactions were incubated at 37 °C for 30 min. Positive (enzyme + vehicle) and negative (no enzyme) controls were included in parallel. Reactions were terminated by adding STEB buffer and chloroform/iso-amyl alcohol (24:1, v/v), vortexed and centrifuged for 2 min. The aqueous (upper) phase was loaded onto a 1 % (w/v) agarose gel, electrophoresed for 1-2 h, stained with GelRed, and imaged under UV trans-illumination.
Data Analysis: Band intensities of supercoiled DNA were quantified with image-analysis software. Relaxation activity (%) was calculated as (Max-Sample)/ (Max-Min)*100%, where Max = intensity of the no-enzyme negative control, Min = intensity of the vehicle-only positive control, and Sample = intensity of the compound-treated lane. Dose-response data (compound concentration, X; relaxation activity %, Y) were fitted in Excel or GraphPad Prism 5.0 using the four-parameter logistic equation: Y=Bottom + (Top-Bottom)/(1+(IC50/X)[…]) to derive the IC50 value for each compound.
Table 1. Compound-mediated inhibition of topoisomerase I (Topo I) enzymatic activity

HCT116 cells = experiment: Inhibition of cell proliferation by CTG (CellTiter-Glo) luminescence assay; format: cell-based; conditions: Homo sapiens, read-out: HCT116, IC50
Outline: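 Nine-point 1:3 dilutions applied to HCT116 cells (2 000/well, McCoy's 5a + 10 % FBS) for 72 h at 37 °C, final DMSO 0.25 %. Viability read by CellTiter-Glo luminescence; % inhibition versus DMSO controls fitted to four-parameter logistic for IC50.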

[1] = read-out: inhibition of topoisomerase I (Topo I) enzymatic activity, IC50; 0.75 U Topo I, pNO1 plasmid, 37 °C, 30 min; compounds listed by group (Group A / Group B)
[2] = 0.75 U Topo I, pNO1 plasmid, 37 °C, 30 min; compounds listed by group (Group A / Group B); read-out: inhibition of topoisomerase I (Topo I) enzymatic activity, IC50
[3] = HCT-116, 72 h incubation, CellTiter-Glo

| Structure (SMILES) | IC50 (topoisomerase I (Topo I); [1]) [µM] | IC50 (HCT116 cells; HCT-116, 72 h) [µM] | IC50 (topoisomerase I (Topo I); [2]) [µM] | IC50 (HCT116 cells; [3]) [µM] |
| --- | --- | --- | --- | --- |
| CC[C@@]1(O)C(=O)OCc2c1cc1n(c2=O)Cc2c-1c(=O)c1cc(F)cc(CN(C)C3CC3)c1n2C [Example 89, (S)-10-((cyclopropyl(methyl)amino)methyl)-4-ethyl-8-fluoro-4-hydroxy-11-methyl-1,12-dihydro-14H-pyrano[3,4:6,7]indolizino[2,1-b]quinoline-3,6,14(4H,11H)-trione] | 0.2 to 0.5 | < 0.02 | – | – |
| CC[C@@]1(O)C(=O)OCc2c1cc1n(c2=O)Cc2c-1c(=O)c1cc(F)ccc1n2CCN1CC2(CC2)C1 [Example 182, (S)-11-(2-(5-azaspiro[2.3]hexan-5-yl)ethyl)-4-ethyl-8-fluoro-4-hydroxy-1,12-dihydro-14H-pyrano[3',4':6,7]indolizino[2,1-b]quinoline-3,6,14(4H,11H)-trione] | – | – | 0.2 to 0.5 | < 0.02 |
| CC[C@@]1(O)C(=O)OCc2c1cc1n(c2=O)Cc2c-1c(=O)c1cc(F)ccc1n2CCN1C2CCC1CC(F)(F)C2 [Example 187] | 0.2 to 0.5 | < 0.02 | – | – |
| CC[C@@]1(O)C(=O)OCc2c1cc1n(c2=O)Cc2c-1c(=O)c1cc(F)c(CN(C)C3CC3)cc1n2C1CC1 [Example 225] | 0.2 to 0.5 | < 0.02 | – | – |
| CC[C@@]1(O)C(=O)OCc2c1cc1n(c2=O)Cc2c-1c(=O)c1cc(F)ccc1n2-c1cn(C2CC2)nc1C(C)O (stereo partly drawn) [Example 63, (4S)-11-(1-cyclopropyl-3-(1-hydroxyethyl)-1H-pyrazol-4-yl)-4-ethyl-8-fluoro-4-hydroxy-1,12-dihydro-14H-pyrano[3,4:6,7] indolizino[2,1-b]quinoline-3,6,14(4H,11H)-trione] | 0.2 to 0.5 | < 0.02 | – | – |
| CC[C@@]1(O)C(=O)OCc2c1cc1n(c2=O)Cc2c-1c(=O)c1cc(F)c(N)cc1n2-c1ccc2c(c1)OC(F)(F)O2 [Example 354] | < 0.2 | < 0.02 | – | – |
| CC[C@@]1(O)C(=O)OCc2c1cc1n(c2=O)Cc2c-1c(=O)c1cc(F)ccc1n2C1CC1 [Example 37, (S)-4-ethyl-8-fluoro-4-hydroxy-11-cyclopropyl-1,12-dihydro-14H-pyrano[3',4':6,7]indolizino[2,1-b]quinoline-3,6,14(4H,11H)-trione] | < 0.2 | < 0.02 | – | – |
| CC[C@@]1(O)C(=O)OCc2c1cc1n(c2=O)Cc2c-1c(=O)c1cc(F)c(C)cc1n2CCN(C)C1CC1 [Example 164] | 0.2 to 0.5 | < 0.02 | – | – |
| CC[C@@]1(O)C(=O)OCc2c1cc1n(c2=O)Cc2c-1c(=O)c1cc(F)cc(C)c1n2CCNC1CCCC1 [Example 168] | 0.2 to 0.5 | < 0.02 | – | – |
| CC[C@@]1(O)C(=O)OCc2c1cc1n(c2=O)Cc2c-1c(=O)c1cc(F)ccc1n2CCN1CC(F)(F)C1 [Example 186] | – | – | 0.2 to 0.5 | < 0.02 |
| CC[C@@]1(O)C(=O)OCc2c1cc1n(c2=O)Cc2c-1c(=O)c1cc(F)c(C)cc1n2CCN(C1CC1)C1CC(F)(F)C1 [Example 165] | 0.2 to 0.5 | < 0.02 | – | – |
| CC[C@@]1(O)C(=O)OCc2c1cc1n(c2=O)Cc2c-1c(=O)c1cc(F)ccc1n2CCN1CCCC1(C)C [Example 184] | < 0.2 | < 0.02 | – | – |
| CC[C@@]1(O)C(=O)OCc2c1cc1n(c2=O)Cc2c-1c(=O)c1cc(F)cc(C)c1n2CCNC1CC1 [Example 169] | 0.2 to 0.5 | < 0.02 | – | – |
| CC[C@@]1(O)C(=O)OCc2c1cc1n(c2=O)Cc2c-1c(=O)c1cc(F)cc(F)c1n2C [Example 24, (S)-4-ethyl-8,10-difluoro-4-hydroxy-11-methyl-1,12-dihydro-14H-pyrano[3,4:6,7]indolizino[2,1-b]quinoline-3,6,14(4H,11H)-trione] | < 0.2 | < 0.02 | – | – |
| CC[C@@]1(O)C(=O)OCc2c1cc1n(c2=O)Cc2c-1c(=O)c1cc(F)ccc1n2-c1cccc(OC)c1 [Example 73, (S)-4-ethyl-8-fluoro-4-hydroxy-11-(3-methoxyphenyl)-1,12-dihydro-14H-pyrano[3,4:6,7]indolizino[2,1-b]quinoline-3,6,14(4H,11H)-trione] | 0.2 to 0.5 | < 0.02 | – | – |
| CC[C@@]1(O)C(=O)OCc2c1cc1n(c2=O)Cc2c-1c(=O)c1cc(F)cc(C)c1n2CCN(C1CCCC1)C1CC1 [Example 171] | 0.2 to 0.5 | < 0.02 | – | – |
| CC[C@@]1(O)C(=O)OCc2c1cc1n(c2=O)Cc2c-1c(=O)c1cc(F)ccc1n2CCN1CCC(C)(C)CC1 [Example 185] | 0.2 to 0.5 | < 0.02 | – | – |
| CC[C@@]1(O)C(=O)OCc2c1cc1n(c2=O)Cc2c-1c(=O)c1ccccc1n2C [Example 1, (S)-4-ethyl-4-hydroxy-11-methyl-1,12-dihydro-14H-pyrano[3,4:6,7]indolizino[2,1 - b]quinoline-3,6,14(4H,11H)-trione] | – | – | < 0.2 | < 0.02 |
| CC[C@@]1(O)C(=O)OCc2c1cc1n(c2=O)Cc2c-1c(=O)c1cc(F)c(N)cc1n2C1CCC(C)(C)CC1 [Example 70, (S)-9-amino-4-ethyl-8-fluoro-4-hydroxy-11-(4,4-dimethylcyclohexyl)-1,12-dihydro-14H-pyrano[3,4:6,7]indolizino[2,1-b] quinoline-3,6,14(4H,11H)-trione] | 0.2 to 0.5 | < 0.02 | – | – |
| CC[C@@]1(O)C(=O)OCc2c1cc1n(c2=O)Cc2c-1c(=O)c1cc(F)ccc1n2CCN(C)C1CCCC1(C)C (stereo partly drawn) [Example 139] | 0.2 to 0.5 | < 0.02 | – | – |
| CC[C@@]1(O)C(=O)OCc2c1cc1n(c2=S)Cc2c-1c(=O)c1cc(F)cc(C)c1n2C [Example 39, (S)-4-ethyl-8-fluoro-4-hydroxy-10,11-dimethyl-14-thioxo-12,14-dihydro-1H-pyrano[3',4':6,7]indolizino[2,1-b]quinoline-3,6(4H, 11H)-dione] | – | – | < 0.2 | < 0.02 |
| CC[C@@]1(O)C(=O)OCc2c1cc1n(c2=O)Cc2c-1c(=O)c1cc(F)cc(OC)c1n2C [Example 10, (S)-4-ethyl-8-fluoro-4-hydroxy-10-methoxy-11-methyl-1,12-dihydro-14H-pyrano[3,4:6,7]indolizino[2,1-b]quinoline-3,6,14 (4H,11H)-trione] | < 0.2 | < 0.02 | – | – |
| CC[C@@]1(O)C(=O)OCc2c1cc1n(c2=O)Cc2c-1c(=O)c1cc(F)ccc1n2CCN(C1CCC1)C1CC1 [Example 141] | 0.2 to 0.5 | < 0.02 | – | – |
| CC[C@@]1(O)C(=O)OCc2c1cc1n(c2=O)Cc2c-1c(=O)c1cc(F)c(C)cc1n2CCNC1CCC1 [Example 159] | 0.2 to 0.5 | < 0.02 | – | – |
| CC[C@@]1(O)C(=O)OCc2c1cc1n(c2=O)Cc2c-1c(=O)c1cc(F)ccc1n2CCN(C1CC1)C1CC1 [Example 140] | < 0.2 | < 0.02 | – | – |
| CC[C@@]1(O)C(=O)OCc2c1cc1n(c2=O)Cc2c-1c(=O)c1cc(F)ccc1n2C [Example 6, (S)-4-ethyl-8-fluoro-4-hydroxy-11-methyl-1,12-dihydro-14H-pyrano[3',4':6,7]indazino[2,1-b]quinoline-3,6,14(4H,11H)-trione] | – | – | < 0.2 | < 0.02 |
| CC[C@@]1(O)C(=O)OCc2c1cc1n(c2=O)Cc2c-1c(=O)c1cc(F)ccc1n2-c1ccc(N)cc1 [Example 72, (S)-11-(4-aminophenyl)-4-ethyl-8-fluoro-4-hydroxy-1H-pyrano[3,4:6,7]indolizino[2,1-b]quinoline-3,6,14(4H,11H,12H)-trione] | 0.2 to 0.5 | < 0.02 | – | – |
